Assay [1] is described as follows: Cytotoxicity against human DU145 cells assessed as reduction in cell viability after 72 hrs by MTT assay. The class given is functional, cell-based. The following applies: DU-145, 72 h. (In general: Formazan colour is commonly taken as a measure of viable cells.)
Assay [2] relates to MCF7. The assay is described as follows: Cytotoxicity against human MCF7 cells assessed as reduction in cell viability after 72 hrs by MTT assay. In kind it is functional, cell-based. The following applies: MCF7, 72 h.
The nature of assay [3]: Cytotoxicity against human GM00637 cells assessed as reduction in cell viability after 72 hrs by MTT assay. In kind it is cell-based. The following applies: GM00637, 72 h.
The nature of assay [4]: Inhibition of recombinant human TRX1/human placental thioredoxin reductase using DTNB as substrate in presence of NADPH by spectrophotometric method.
Assay [5] has as its target Thioredoxin reductase (Homo sapiens, UniProt Q16881+Q9NNW7+Q86VQ6). The assay can be described thus: Irreversible inhibition of thioredoxin reductase (unknown origin). The class given is protein assay.

By IC50 is commonly meant the concentration that gives 50% inhibition. Turning to `CNc1cc2nc(-c3ccccc3)nn(-c3ccccc3)c-2cc1=O`, the IC50 turned out to be 0.98 µM in assay [1], 0.69 µM in assay [2] and 0.93 µM in assay [3].
For `CCNc1cc2nc(-c3ccccc3)nn(-c3ccccc3)c-2cc1=O`, the IC50 in assay [1] is 0.22 µM; in assay [2] it was 1.62 µM; in assay [3], 0.24 µM.
For `C[C@@H]1CO[C@@H]2C3=C(C(=O)C=CC3=O)[C@H]3OC(=O)[C@@H]4CC[C@H]5C1CC[C@@]25[C@@H]34`, the IC50 stood at 0.17 µM in assay [4], 0.43 µM in assay [1], 0.28 µM in assay [2] and 0.51 µM in assay [3]. The compound further yielded a Ki in assay [5] of 0.28 µM.
`COc1cc2nc(-c3ccccc3)nn(-c3ccccc3)c-2cc1=O`: the IC50 in assay [1], in assay [2] and in assay [3] was above 5 µM in each case.
On to `CCN(CC)c1cc2nc(-c3ccccc3)nn(-c3ccccc3)c-2cc1=O`, for which the results for the IC50 in assay [1], in assay [2] and in assay [3] were 3.11 µM, above 5 µM and 2.73 µM, respectively.
The like results for `O=c1cc2n(-c3ccccc3)nc(-c3ccccc3)nc-2cc1N1CCCC1` were, in that order, 2.46 µM, 0.36 µM and 1.79 µM.
For `O=c1cc2n(-c3ccccc3)nc(-c3ccccc3)nc-2cc1N1CCOCC1`, the concentration for half-maximal inhibition (IC50) came to 3.21 µM in assay [1], 2.37 µM in assay [2] and 2.29 µM in assay [3].
In the case of `Nc1cc2nc(-c3ccccc3)nn(-c3ccccc3)c-2cc1=O`, the IC50 is 1.83 µM in assay [1], 0.95 µM in assay [2] and 2.04 µM in assay [3].
Take `CCOc1cc2nc(-c3ccccc3)nn(-c3ccccc3)c-2cc1=O`: the IC50 in assay [1], in assay [2] and in assay [3] was above 5 µM in each case.
For the compound `O=c1cc2n(-c3ccccc3)nc(-c3ccccc3)nc-2cc1N1CCSCC1`, the IC50 was 1.22 µM in assay [1], 0.97 µM in assay [2] and 1.63 µM in assay [3].
In the case of `O=c1cc2n(-c3ccccc3)nc(-c3ccccc3)nc-2cc1N1CCCCC1`, the IC50 in assay [1] is 0.61 µM; in assay [2] it was 1.98 µM; in assay [3], 1.19 µM.
The like results for `CC(=O)Nc1cc2nc(-c3ccccc3)nn(-c3ccccc3)c-2cc1=O` were, in that order, above 5 µM, above 5 µM and above 5 µM.

Values taken from ChEMBL document CHEMBL3813672, “Discovery of anti-cancer activity for benzo[1,2,4]triazin-7-ones: Very strong correlation to pleurotin and thioredoxin reductase inhibition” (Bioorg Med Chem, 2016).
